Reference: PubChem BioAssay AID248 (DTP/NCI, 2004)
Inconclusive results and toxic doses are left out. Cut-off read from the data, not from the text of the source: active = T/C of 150% or more; inactive = T/C below 125%.

System: L1210 leukemia ip in BDF1 mice, survival T/C
Assay: NCI In Vivo Anticancer Drug Screen. Data for tumor model L1210 Leukemia (intraperitoneal) in B6D2F1 (BDF1) mice
Conditions: endpoint: mean survival time, higher = longer survival
Method in brief: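 Survival endpoint. Drug-treated group vs vehicle group, expressed as T divided by C. Tumor passaged by transplantation.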

[1] = dose: 75.0 mg/kg/injection, schedule: Q01DX001 (ip), vehicle: saline
[2] = dose: 150.0 mg/kg/injection, schedule: Q01DX001 (ip), vehicle: saline
[3] = dose: 100.0 mg/kg/injection, schedule: Q04DX002 (ip), vehicle: Klucel (hydroxypropylcellulose) (HPC)
[4] = dose: 200.0 mg/kg/injection, schedule: Q04DX002 (ip), vehicle: Klucel (hydroxypropylcellulose) (HPC)
[5] = dose: 400.0 mg/kg/injection, schedule: Q04DX002 (ip), vehicle: Klucel (hydroxypropylcellulose) (HPC)
[6] = dose: 100.0 mg/kg/injection, schedule: Q01DX009 (ip), vehicle: Klucel (hydroxypropylcellulose) (HPC)
[7] = dose: 100.0 mg/kg/injection, schedule: Q04DX003 (ip), vehicle: Klucel (hydroxypropylcellulose) (HPC)
[8] = dose: 200.0 mg/kg/injection, schedule: Q04DX003 (ip), vehicle: Klucel (hydroxypropylcellulose) (HPC)
[9] = dose: 400.0 mg/kg/injection, schedule: Q01DX009 (ip), vehicle: Klucel (hydroxypropylcellulose) (HPC)
[10] = dose: 400.0 mg/kg/injection, schedule: Q04DX003 (ip), vehicle: Klucel (hydroxypropylcellulose) (HPC)
[11] = dose: 100.0 mg/kg/injection, schedule: Q01DX001 (ip), vehicle: saline
[12] = dose: 100.0 mg/kg/injection, schedule: Q01DX009 (ip), vehicle: saline with Tween-80
[13] = dose: 200.0 mg/kg/injection, schedule: Q01DX001 (ip), vehicle: saline
[14] = dose: 200.0 mg/kg/injection, schedule: Q01DX009 (ip), vehicle: saline with Tween-80
[15] = dose: 400.0 mg/kg/injection, schedule: Q01DX001 (ip), vehicle: saline
[16] = dose: 200.0 mg/kg/injection, schedule: Q01DX009 (ip), vehicle: Klucel (hydroxypropylcellulose) (HPC)
[17] = dose: 100.0 mg/kg/injection, schedule: Q04DX003 (ip), vehicle: saline with Tween-80
[18] = dose: 200.0 mg/kg/injection, schedule: Q04DX003 (ip), vehicle: saline with Tween-80
[19] = dose: 100.0 mg/kg/injection, schedule: Q04DX002 (ip), vehicle: saline with Tween-80
[20] = dose: 200.0 mg/kg/injection, schedule: Q04DX002 (ip), vehicle: saline with Tween-80
[21] = dose: 100.0 mg/kg/injection, schedule: Q01DX001 (ip), vehicle: carboxymethylcellulose (CMC)
[22] = dose: 200.0 mg/kg/injection, schedule: Q01DX001 (ip), vehicle: carboxymethylcellulose (CMC)
[23] = dose: 400.0 mg/kg/injection, schedule: Q01DX001 (ip), vehicle: carboxymethylcellulose (CMC)

Measured: T/C

CN1CCN(Cc2cc(Cl)c3cccnc3c2O)CC1
inactive: [1] 100 % of control | [2] 106 % of control

Cc1cc(OC(=O)c2ccc(N)cc2)ccc1C1=NCC(C)S1 (stereo not drawn)
inactive: dose: 25.0 mg/kg/injection, schedule: Q04DX002 (ip), vehicle: DMSO 89 % of control | dose: 50.0 mg/kg/injection, schedule: Q04DX002 (ip), vehicle: DMSO 92 % of control | dose: 100.0 mg/kg/injection, schedule: Q04DX002 (ip), vehicle: DMSO 100 % of control

O=C(O)c1c[nH]c2c(Cl)cccc2c1=O
inactive: [3] 100 % of control | [4] 96 % of control | [5] 107 % of control

O=C(COc1ccc(Cl)cc1)Nc1ccc(Cl)cc1
inactive: [6] 91 % of control | [7] 92 % of control | [8] 93 % of control | [9] 88 % of control | [10] 93 % of control

CC1(C)OC(=O)C(=Cc2c(Cl)cccc2Cl)C(=O)O1
inactive: [11] 98 % of control | [12] 104 % of control | dose: 100.0 mg/kg/injection, schedule: Q04DX003 (ip), vehicle: saline 99 % of control | [13] 95 % of control | [14] 92 % of control | dose: 200.0 mg/kg/injection, schedule: Q04DX003 (ip), vehicle: saline 94 % of control | [15] 96 % of control | dose: 400.0 mg/kg/injection, schedule: Q04DX003 (ip), vehicle: saline 97 % of control

CCOC(=O)c1cccs1
inactive: [6] 99 % of control | [7] 103 % of control | [16] 95 % of control | [8] 100 % of control | [9] 97 % of control | [10] 105 % of control

CSc1ccc(OC(=O)Nc2ccccc2C)cc1
inactive: [3] 95 % of control | [4] 106 % of control | [5] 114 % of control

COc1cc(C=C(C(C)=O)C(C)=O)ccc1O
inactive: [17] 112 % of control | [18] 109 % of control

CCSC(Sc1ccccc1)C(SCC)C(OC(=O)c1ccccc1)C(OC(=O)c1ccccc1)C(COC(=O)c1ccccc1)OC(=O)c1ccccc1 (stereo not drawn)
inactive: dose: 75.0 mg/kg/injection, schedule: Q01DX001 (ip), vehicle: other 95 % of control | dose: 150.0 mg/kg/injection, schedule: Q01DX001 (ip), vehicle: other 90 % of control | dose: 300.0 mg/kg/injection, schedule: Q01DX001 (ip), vehicle: other 94 % of control

O=C(O)C(Br)C(Br)C(=O)Nc1ccc(F)cc1 (stereo not drawn)
inactive: [19] 104 % of control | [20] 93 % of control

O=S(=O)(c1ccccc1)S(=O)(=O)c1ccccc1
inactive: [6] 107 % of control | [3] 105 % of control | [16] 88 % of control | [4] 86 % of control | [9] 96 % of control | [5] 90 % of control

O=C1c2ccccc2C(=O)C2CC(c3ccccc3)=C(c3ccccc3)CC12 (stereo not drawn)
inactive: [3] 96 % of control | [4] 96 % of control | [5] 100 % of control

Nc1ncnc2c1cnn2C1OC(CO)C(O)C1O (stereo not drawn)
inactive: dose: 4.1 mg/kg/injection, schedule: Q01DX009 (ip), vehicle: carboxymethylcellulose (CMC) 97 % of control | dose: 6.2 mg/kg/injection, schedule: Q01DX009 (ip), vehicle: carboxymethylcellulose (CMC) 111 % of control | dose: 9.3 mg/kg/injection, schedule: Q01DX009 (ip), vehicle: carboxymethylcellulose (CMC) 124 % of control | dose: 67.5 mg/kg/injection, schedule: Q01DX015 (ip), vehicle: carboxymethylcellulose (CMC) 122 % of control | [21] 111 % of control

CS(=O)(=O)c1ccc(Br)cc1
inactive: [12] 103 % of control | [17] 90 % of control | [14] 102 % of control | [18] 98 % of control | dose: 400.0 mg/kg/injection, schedule: Q01DX009 (ip), vehicle: saline with Tween-80 102 % of control | dose: 400.0 mg/kg/injection, schedule: Q04DX003 (ip), vehicle: saline with Tween-80 96 % of control

CC[C@@]1(O)C(=O)OCc2c1cc1n(c2=O)Cc2c-1nc1ccccc1c2Cl
inactive: [11] 117 % of control | [15] 88 % of control

O=[N+]([O-])c1cc2c(nc3ccccn32)c2ccccc12
inactive: dose: 50.0 mg/kg/injection, schedule: Q01DX001 (ip), vehicle: saline 97 % of control | [11] 96 % of control | [13] 97 % of control

CNc1ccccc1C(=O)N/N=C\c1ccc(Cl)cc1Cl
inactive: [3] 105 % of control | [4] 94 % of control | [5] 97 % of control

CCC(O)C(CCN(C)C)(CN(C)C)c1ccccc1 (stereo not drawn)
inactive: dose: 75.0 mg/kg/injection, schedule: Q01DX001 (ip), vehicle: carboxymethylcellulose (CMC) 94 % of control | dose: 150.0 mg/kg/injection, schedule: Q01DX001 (ip), vehicle: carboxymethylcellulose (CMC) 102 % of control

c1cc(Cc2ccc3c(c2)OCO3)c[nH]1
inactive: dose: 50.0 mg/kg/injection, schedule: Q04DX002 (ip), vehicle: saline with Tween-80 103 % of control | [19] 110 % of control | [20] 100 % of control

CCCCCCCCCCCCCCCC(=O)SCCSC(=O)CCCCCCCCCCCCCCC
inactive: dose: 87.5 mg/kg/injection, schedule: Q04DX003 (ip), vehicle: other 93 % of control | dose: 175.0 mg/kg/injection, schedule: Q04DX003 (ip), vehicle: other 93 % of control

COc1ccc(/C=N/NC(=O)CNC(=O)NCc2ccccc2)cc1
inactive: [6] 90 % of control | [16] 93 % of control

CCOc1ccc(NC(=O)CC(C)=O)cc1
inactive: dose: 25.0 mg/kg/injection, schedule: Q04DX003 (ip), vehicle: other 95 % of control | dose: 50.0 mg/kg/injection, schedule: Q04DX003 (ip), vehicle: other 100 % of control | dose: 100.0 mg/kg/injection, schedule: Q04DX003 (ip), vehicle: other 96 % of control

CC(CC(C#N)(c1ccccc1)c1ccccc1)OS(C)(=O)=O (stereo not drawn)
inactive: [21] 94 % of control | [22] 94 % of control | [23] 94 % of control

NC1=NC(c2ccccc2)C2=C(N1)C(=O)N(c1ccc(Br)cc1)C2 (stereo not drawn)
inactive: dose: 18.75 mg/kg/injection, schedule: Q01DX009 (ip), vehicle: saline 88 % of control | dose: 37.5 mg/kg/injection, schedule: Q01DX009 (ip), vehicle: saline 86 % of control | [1] 93 % of control | dose: 75.0 mg/kg/injection, schedule: Q01DX009 (ip), vehicle: saline 91 % of control | [2] 90 % of control | dose: 300.0 mg/kg/injection, schedule: Q01DX001 (ip), vehicle: saline 95 % of control

CCOc1ccc(Cl)cc1C1N(Cc2ccc(OC)cc2)CCCN1Cc1ccc(OC)cc1
inactive: [21] 98 % of control | [22] 98 % of control | [23] 102 % of control

NC(N)=NC(N)=Nc1cc(C(F)(F)F)ccc1Cl
inactive: dose: 12.5 mg/kg/injection, schedule: Q01DX009 (ip), vehicle: Klucel (hydroxypropylcellulose) (HPC) 95 % of control | dose: 25.0 mg/kg/injection, schedule: Q01DX009 (ip), vehicle: Klucel (hydroxypropylcellulose) (HPC) 95 % of control | dose: 50.0 mg/kg/injection, schedule: Q01DX009 (ip), vehicle: Klucel (hydroxypropylcellulose) (HPC) 113 % of control

O=C(CCl)Nc1cc(Cl)ccc1N1CCCCC1
inactive: dose: 100.0 mg/kg/injection, schedule: Q01DX009 (ip), vehicle: acetone 100 % of control | dose: 200.0 mg/kg/injection, schedule: Q01DX009 (ip), vehicle: acetone 91 % of control | dose: 400.0 mg/kg/injection, schedule: Q01DX009 (ip), vehicle: acetone 91 % of control

CCCCCCCC/C=C\CCCCCCCC(=O)OCCCCCCCCCCCCCCCCC
inactive: dose: 75.0 mg/kg/injection, schedule: Q01DX009 (ip), vehicle: saline sonified 106 % of control | [6] 94 % of control | dose: 150.0 mg/kg/injection, schedule: Q01DX009 (ip), vehicle: saline sonified 104 % of control | [16] 91 % of control | dose: 300.0 mg/kg/injection, schedule: Q01DX009 (ip), vehicle: saline sonified 96 % of control | [9] 110 % of control

O=S(c1ccccc1)C1CCCCC1O (stereo not drawn)
inactive: [19] 108 % of control | [20] 118 % of control
